Earlier results as cited in US20160378910A1, “MOLECULAR ACTIVE CENTER IDENTIFICATION USING TUNNELING BARRIERS AND/OR ASSOCIATED MEASUREMENTS FOR SUB-MOLECULAR QSAR” (Florida Institute of Technology, Inc., priority 2015, published 2016).

Tested on: W-2 strain of P. falciparum
Details: W-2 strain of malaria (P. falciparum); rank among the twelve tryptanthrin analogs in the α3* lobe QSAR plot (FIG. 13)

## O=C1c2cc(I)ccc2-n2c1nc1c(O)nc(O)nc1c2=O [1,3-diaza-2,4-hydroxy-8-iodotryptanthrin]
  IC50: highest
